Laboratory results reported in ChEMBL document CHEMBL1201861, “Genomics of Drug Sensitity in Cancer screening data, Wellcome Trust Sanger Institute”.

Assays:
Test in all cases: cells
COR-L23 = type: functional, cell-based; conditions: Homo sapiens;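 also: cell viability assay measuring how strongly compounds suppress growth of COR-L23 cells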
Description: SANGER: Inhibition of human COR-L23 cell growth in a cell viability assay.

CaR-1 = type: functional, cell-based; conditions: Homo sapiens;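 also: growth inhibition of human CaR-1 cancer cells, read out with a cell viability assay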
Description: SANGER: Inhibition of human CaR-1 cell growth in a cell viability assay.

DK-MG = type: functional, cell-based; conditions: Homo sapiens;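 also: growth inhibition of DK-MG cells, read out with a cell viability assay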
Description: SANGER: Inhibition of human DK-MG cell growth in a cell viability assay.

EC-GI-10 = type: functional, cell-based, Homo sapiens; conditions: Homo sapiens, EC-GI-10
Description: SANGER: Inhibition of human EC-GI-10 cell growth in a cell viability assay.

EW-24 = type: functional, cell-based, Homo sapiens; conditions: Homo sapiens, EW-24;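 also: human EW-24 cancer cell line, growth inhibition read out via a cell viability assay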
Description: SANGER: Inhibition of human EW-24 cell growth in a cell viability assay.

GP5d = type: functional, cell-based; conditions: Homo sapiens;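 also: growth inhibition of human GP5d cells, read out with a cell viability assay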
Description: SANGER: Inhibition of human GP5d cell growth in a cell viability assay.

HCC38 = type: functional, cell-based; conditions: Homo sapiens;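 also: cell viability assay on the human HCC38 cell line, with IC50 marking the concentration that inhibits cell growth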
Description: SANGER: Inhibition of human HCC38 cell growth in a cell viability assay.

HCT-15 = type: functional, cell-based; conditions: Homo sapiens;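 also: cell viability readout, IC50 reflecting suppression of HCT-15 cell growth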
Description: SANGER: Inhibition of human HCT-15 cell growth in a cell viability assay.

HEC-1 = type: functional, cell-based; conditions: Homo sapiens;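 also: growth inhibition of the cell line, read out with a cell viability assay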
Description: SANGER: Inhibition of human HEC-1 cell growth in a cell viability assay.

HOS = type: functional, cell-based; conditions: Homo sapiens;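 also: growth inhibition of human HOS cells, read out with a cell viability assay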
Description: SANGER: Inhibition of human HOS cell growth in a cell viability assay.

HT1197 = type: functional, cell-based, HT-1197; conditions: Homo sapiens
Description: SANGER: Inhibition of human HT-1197 cell growth in a cell viability assay.

HuO9 = type: functional, cell-based; conditions: Homo sapiens;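 also: growth inhibition of HuO9 cells, read out with a cell viability assay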
Description: SANGER: Inhibition of human HuO9 cell growth in a cell viability assay.

KYSE-140 = type: functional, cell-based; conditions: Homo sapiens;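 also: cell viability assay measuring growth inhibition in human KYSE-140 cells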
Description: SANGER: Inhibition of human KYSE-140 cell growth in a cell viability assay.

KYSE-450 = type: functional, cell-based; conditions: Homo sapiens;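 also: cell growth inhibition measured by a viability assay in human KYSE-450 cells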
Description: SANGER: Inhibition of human KYSE-450 cell growth in a cell viability assay.

KYSE-520 cell line = type: functional, cell-based; conditions: Homo sapiens;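 also: growth inhibition of human KYSE-520 cells, read out with a viability assay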
Description: SANGER: Inhibition of human KYSE-520 cell growth in a cell viability assay.

KYSE-70 cell line = type: functional, cell-based; conditions: Homo sapiens;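 also: cell viability assay read-out, with IC50 expressing suppression of KYSE-70 cell growth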
Description: SANGER: Inhibition of human KYSE-70 cell growth in a cell viability assay.

LU-99A = type: functional, cell-based; conditions: Homo sapiens;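 also: growth inhibition of LU-99A cells, read out with a cell viability assay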
Description: SANGER: Inhibition of human LU-99A cell growth in a cell viability assay.

MOLT-13 = type: functional, cell-based; conditions: Homo sapiens;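 also: IC50 for suppression of MOLT-13 cell growth, read out with a cell viability assay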
Description: SANGER: Inhibition of human MOLT-13 cell growth in a cell viability assay.

NB17 = type: functional, cell-based, Homo sapiens; conditions: Homo sapiens, NB17;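 also: growth inhibition of NB17 cells, read out with a cell viability assay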
Description: SANGER: Inhibition of human NB17 cell growth in a cell viability assay.

NCI-H2087 = type: functional, cell-based; conditions: Homo sapiens;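 also: growth inhibition determined with a cell viability readout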
Description: SANGER: Inhibition of human NCI-H2087 cell growth in a cell viability assay.

NCI-H727 = type: functional, cell-based; conditions: Homo sapiens;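 also: growth inhibition of human NCI-H727 cells, read out with a cell viability assay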
Description: SANGER: Inhibition of human NCI-H727 cell growth in a cell viability assay.

P12-Ichikawa = type: functional, cell-based; conditions: Homo sapiens
PC-14 = type: functional, cell-based; conditions: Homo sapiens;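 also: cell viability assay measuring inhibition of PC-14 cell growth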
Description: SANGER: Inhibition of human PC-14 cell growth in a cell viability assay.

PFSK-1 = type: functional, cell-based; conditions: Homo sapiens;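 also: cell viability assay measuring how strongly compounds suppress growth of human PFSK-1 cells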
Description: SANGER: Inhibition of human PFSK-1 cell growth in a cell viability assay.

RERF-LC-MS = type: functional, cell-based; conditions: Homo sapiens;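 also: growth inhibition of human RERF-LC-MS cells, read out by a cell viability assay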
Description: SANGER: Inhibition of human RERF-LC-MS cell growth in a cell viability assay.

RVH-421 = type: functional, cell-based; conditions: Homo sapiens
Description: SANGER: Inhibition of human RVH-421 cell growth in a cell viability assay.

SCC-4 = type: functional, cell-based; conditions: Homo sapiens;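 also: growth inhibition of human SCC-4 cells, read out as cell viability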
Description: SANGER: Inhibition of human SCC-4 cell growth in a cell viability assay.

SCC-9 = type: functional, cell-based; conditions: Homo sapiens;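 also: Read-out is a cell viability assay, with values giving inhibition of cell growth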
Description: SANGER: Inhibition of human SCC-9 cell growth in a cell viability assay.

SK-MEL-28 = type: functional, cell-based; conditions: Homo sapiens;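 also: growth inhibition of human SK-MEL-28 cells, read out with a cell viability assay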
Description: SANGER: Inhibition of human SK-MEL-28 cell growth in a cell viability assay.

SK-MEL-30 = type: functional, cell-based; conditions: Homo sapiens;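 also: growth inhibition of SK-MEL-30 cells, determined with a cell viability assay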
Description: SANGER: Inhibition of human SK-MEL-30 cell growth in a cell viability assay.

SNU-423 = type: functional, cell-based; conditions: Homo sapiens
Description: SANGER: Inhibition of human SNU-423 cell growth in a cell viability assay.

SNU-449 = type: functional, cell-based; conditions: Homo sapiens
Description: SANGER: Inhibition of human SNU-449 cell growth in a cell viability assay.

SW13 = type: functional, cell-based; conditions: Homo sapiens;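 also: IC50 is inhibition of SW13 cell growth, read out with a cell viability assay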
Description: SANGER: Inhibition of human SW13 cell growth in a cell viability assay.

SW948 = type: functional, cell-based; conditions: Homo sapiens;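 also: growth inhibition of SW948 cells, read out with a cell viability assay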
Description: SANGER: Inhibition of human SW948 cell growth in a cell viability assay.

8305C = type: functional, cell-based; conditions: Homo sapiens
Description: SANGER: Inhibition of human 8305C cell growth in a cell viability assay.

A-375 = type: functional, cell-based; conditions: Homo sapiens;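 also: growth inhibition of A375 cells, read out with a cell viability assay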
Description: SANGER: Inhibition of human A375 cell growth in a cell viability assay.

A-431 = type: functional, cell-based; conditions: Homo sapiens;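 also: growth inhibition of A-431 cells, determined with a cell viability read-out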
Description: SANGER: Inhibition of human A431 cell growth in a cell viability assay.

AU565 = type: functional, cell-based; conditions: Homo sapiens;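 also: cell viability assay measuring growth inhibition of human AU565 cells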
Description: SANGER: Inhibition of human AU565 cell growth in a cell viability assay.

BT-20 = type: functional, cell-based; conditions: Homo sapiens;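 also: cell viability assay measuring suppression of growth in human BT-20 cells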
Description: SANGER: Inhibition of human BT-20 cell growth in a cell viability assay.

C-33-A = type: functional, cell-based; conditions: Homo sapiens;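 also: cell viability assay measuring growth inhibition of C-33-A cells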
Description: SANGER: Inhibition of human C-33-A cell growth in a cell viability assay.

CAL-27 = type: functional, cell-based; conditions: Homo sapiens;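 also: Viability-based readout, IC50 reflecting inhibition of CAL-27 cell growth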
Description: SANGER: Inhibition of human CAL-27 cell growth in a cell viability assay.

CAL-39 = type: functional, cell-based; conditions: Homo sapiens;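 also: cell viability assay measuring growth inhibition of CAL-39 cells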
Description: SANGER: Inhibition of human CAL-39 cell growth in a cell viability assay.

CHL-1 = type: functional, cell-based; conditions: Homo sapiens;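 also: cell growth inhibition, read out with a cell viability assay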
Description: SANGER: Inhibition of human CHL-1 cell growth in a cell viability assay.

What does the source list for CN(NC(=O)CC(=O)NN(C)C(=S)c1ccccc1)C(=S)c1ccccc1 [ELESCLOMOL]?
IC50 (COR-L23): > 200 nM; IC50 (CaR-1): > 200 nM; IC50 (DK-MG): 17.1 nM; IC50 (EC-GI-10): 44.6 nM; IC50 (EW-24): 3.83 nM; IC50 (GP5d): > 200 nM; IC50 (HCC38): > 200 nM; IC50 (HCT-15): 150 nM; IC50 (HEC-1): 8.25 nM; IC50 (HOS): 2.53 nM; IC50 (HT1197): 21.8 nM; IC50 (HuO9): 21.5 nM; IC50 (KYSE-140): 21 nM; IC50 (KYSE-450): 39 nM; IC50 (KYSE-520 cell line): 104 nM; IC50 (KYSE-70 cell line): 54 nM; IC50 (LU-99A): > 200 nM; IC50 (MOLT-13): > 200 nM; IC50 (NB17): 8.94 nM; IC50 (NCI-H2087): > 200 nM; IC50 (NCI-H727): > 200 nM; IC50 (P12-Ichikawa): 4.04 nM; IC50 (PC-14): 24.7 nM; IC50 (PFSK-1): 12.7 nM; IC50 (RERF-LC-MS): 8.58 nM; IC50 (RVH-421): 76.2 nM; IC50 (SCC-4): > 200 nM; IC50 (SCC-9): 121 nM; IC50 (SK-MEL-28): 79.7 nM; IC50 (SK-MEL-30): > 200 nM; IC50 (SNU-423): 15.2 nM; IC50 (SNU-449): 14.2 nM; IC50 (SW13): 7.69 nM; IC50 (SW948): > 200 nM; IC50 (8305C): 192 nM; IC50 (A-375): 4.14 nM; IC50 (A-431): 126 nM; IC50 (AU565): 59.1 nM; IC50 (BT-20): 35.2 nM; IC50 (C-33-A): 7.58 nM; IC50 (CAL-27): 33.4 nM; IC50 (CAL-39): 13.3 nM; IC50 (CHL-1): 2.81 nM

How did the IC50 (COR-L23) turn out when NC1(c2ccc(-c3nc4ccn5c(=O)[nH]nc5c4cc3-c3ccccc3)cc2)CCC1 [MK-2206] was run?
Its IC50 is over 4000 nM.

What about the IC50 (CaR-1) of the same molecule?
Its IC50 is over 4000 nM.

And the IC50 (DK-MG)?
The IC50 was over 4000 nM.

What about the IC50 (GP5d) of the same molecule?
Its IC50 is over 4000 nM.

And the IC50 (HCC38)?
Its IC50 is over 4000 nM.

And the IC50 (HEC-1)?
The IC50 was over 4000 nM.

What about the IC50 (HOS) of the same molecule?
Its IC50 is 1500 nM.

And the IC50 (HT1197)?
The IC50 was over 4000 nM.

What about the IC50 (HuO9) of the same molecule?
The IC50 was 928 nM.

What about the IC50 (KYSE-140) of the same molecule?
The IC50 was over 4000 nM.

What about the IC50 (KYSE-450) of the same molecule?
The IC50 was over 4000 nM.

And the IC50 (KYSE-520 cell line)?
Its IC50 is over 4000 nM.

And the IC50 (KYSE-70 cell line)?
Its IC50 is over 4000 nM.

And the IC50 (LU-99A)?
The IC50 was over 4000 nM.

And the IC50 (MOLT-13)?
Its IC50 is over 4000 nM.

What about the IC50 (NB17) of the same molecule?
The IC50 was over 4000 nM.

What about the IC50 (NCI-H2087) of the same molecule?
Its IC50 is over 4000 nM.

And the IC50 (NCI-H727)?
Its IC50 is over 4000 nM.

What about the IC50 (P12-Ichikawa) of the same molecule?
Its IC50 is 116 nM.

And the IC50 (PC-14)?
The IC50 was over 4000 nM.

What about the IC50 (PFSK-1) of the same molecule?
The IC50 was over 4000 nM.

And the IC50 (RERF-LC-MS)?
The IC50 was over 4000 nM.

And the IC50 (RVH-421)?
Its IC50 is 3820 nM.

What about the IC50 (SCC-4) of the same molecule?
The IC50 was over 4000 nM.

And the IC50 (SCC-9)?
Its IC50 is over 4000 nM.

And the IC50 (SK-MEL-30)?
Its IC50 is over 4000 nM.

And the IC50 (SNU-423)?
The IC50 was 2890 nM.

And the IC50 (SNU-449)?
Its IC50 is over 4000 nM.

And the IC50 (SW948)?
Its IC50 is over 4000 nM.

And the IC50 (8305C)?
Its IC50 is over 4000 nM.

What about the IC50 (A-431) of the same molecule?
Its IC50 is over 4000 nM.

What about the IC50 (AU565) of the same molecule?
The IC50 was over 4000 nM.

And the IC50 (BT-20)?
The IC50 was over 4000 nM.

What about the IC50 (C-33-A) of the same molecule?
The IC50 was over 4000 nM.

What about the IC50 (CAL-27) of the same molecule?
The IC50 was over 4000 nM.

And the IC50 (CAL-39)?
Its IC50 is over 4000 nM.

What about the IC50 (CHL-1) of the same molecule?
Its IC50 is over 4000 nM.

Which IC50 (COR-L23) does the source give for O=C1NC(=O)c2c1c(-c1ccccc1Cl)cc1[nH]c3ccc(O)cc3c21 here?
The IC50 was 752 nM.

And the IC50 (CaR-1)?
The IC50 was over 2000 nM.

And the IC50 (DK-MG)?
Its IC50 is over 2000 nM.

And the IC50 (GP5d)?
The IC50 was over 2000 nM.

And the IC50 (HCC38)?
The IC50 was over 2000 nM.

What about the IC50 (HEC-1) of the same molecule?
Its IC50 is over 2000 nM.

What about the IC50 (HOS) of the same molecule?
Its IC50 is over 2000 nM.

What about the IC50 (HT1197) of the same molecule?
Its IC50 is over 2000 nM.

What about the IC50 (HuO9) of the same molecule?
Its IC50 is 1960 nM.

And the IC50 (KYSE-140)?
Its IC50 is over 2000 nM.

What about the IC50 (KYSE-450) of the same molecule?
Its IC50 is over 2000 nM.

And the IC50 (KYSE-520 cell line)?
Its IC50 is over 2000 nM.

What about the IC50 (KYSE-70 cell line) of the same molecule?
Its IC50 is over 2000 nM.

What about the IC50 (LU-99A) of the same molecule?
The IC50 was over 2000 nM.

And the IC50 (MOLT-13)?
Its IC50 is over 2000 nM.

And the IC50 (NB17)?
The IC50 was over 2000 nM.

And the IC50 (NCI-H2087)?
Its IC50 is over 2000 nM.

And the IC50 (NCI-H727)?
The IC50 was over 2000 nM.

What about the IC50 (P12-Ichikawa) of the same molecule?
The IC50 was 482 nM.

What about the IC50 (PC-14) of the same molecule?
The IC50 was over 2000 nM.

And the IC50 (PFSK-1)?
The IC50 was over 2000 nM.

What about the IC50 (RERF-LC-MS) of the same molecule?
The IC50 was over 2000 nM.

And the IC50 (RVH-421)?
Its IC50 is over 2000 nM.

And the IC50 (SCC-4)?
Its IC50 is over 2000 nM.

What about the IC50 (SCC-9) of the same molecule?
Its IC50 is over 2000 nM.

And the IC50 (SK-MEL-28)?
The IC50 was over 2000 nM.

And the IC50 (SK-MEL-30)?
The IC50 was over 2000 nM.

And the IC50 (SNU-423)?
Its IC50 is over 2000 nM.

What about the IC50 (SNU-449) of the same molecule?
The IC50 was over 2000 nM.

And the IC50 (SW13)?
The IC50 was over 2000 nM.

What about the IC50 (SW948) of the same molecule?
Its IC50 is over 2000 nM.

What about the IC50 (8305C) of the same molecule?
Its IC50 is over 2000 nM.

And the IC50 (A-375)?
Its IC50 is 1520 nM.

And the IC50 (A-431)?
The IC50 was over 2000 nM.

What about the IC50 (AU565) of the same molecule?
The IC50 was over 2000 nM.

And the IC50 (BT-20)?
Its IC50 is over 2000 nM.

And the IC50 (C-33-A)?
The IC50 was over 2000 nM.

And the IC50 (CAL-27)?
Its IC50 is over 2000 nM.

And the IC50 (CAL-39)?
Its IC50 is over 2000 nM.

And the IC50 (CHL-1)?
Its IC50 is 1050 nM.
